Tests used:
Conditions in all cases: exposure time: 72 h
[1] = tested on: E13 (patient-derived glioblastoma stem cells of classical subtype); test: phenotypic distance (Euclidean, principal components) from DMSO controls (arbitrary units); higher = stronger morphological change
[2] = tested on: E28 (patient-derived glioblastoma stem cells of classical subtype); test: as above
[3] = tested on: FT3469 (normal neural stem cell line); test: as above
[4] = tested on: E57 (patient-derived glioblastoma stem cells of mesenchymal subtype); test: as above
[5] = tested on: E34 (patient-derived glioblastoma stem cells of proneural subtype); test: as above
[6] = tested on: E31 (patient-derived glioblastoma stem cells of proneural subtype); test: as above
[7] = tested on: E21 (patient-derived glioblastoma stem cells of mesenchymal subtype); test: as above
[8] = tested on: E13; test: surviving fraction (nuclei count normalised to DMSO); higher = more cells surviving (less toxic)
[9] = tested on: E28; test: as above
[10] = tested on: FT3469; test: as above
[11] = tested on: E57; test: as above
[12] = tested on: E34; test: as above
[13] = tested on: E31; test: as above
[14] = tested on: E21; test: as above
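Throughout, for phenotypic distance (Euclidean, principal components) from DMSO controls: cell Painting imaging in 384-well plates, CellProfiler features reduced to at least 20 principal components, Euclidean distance versus same-plate DMSO vehicle wells (0.1% v/v), median over six images per well.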
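Throughout, for surviving fraction (nuclei count normalised to DMSO): nuclei counted by high-content imaging of Hoechst-stained cells in laminin-coated 384-well plates, relative to 0.1% DMSO vehicle wells, with staurosporine as cell-death control.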

Clc1ccc(COC(Cn2ccnc2)c2ccc(Cl)cc2Cl)c(Cl)c1 (stereo unspecified) [Miconazole]
Conditions | phenotypic distance | surviving fraction
[1], 4.1 nM | 0.853 | –
[1], 12.3 nM | 0.53 | –
[1], 37 nM | 0.487 | –
[1], 111.1 nM | 0.696 | –
[1], 333.3 nM | 1.05 | –
[1], 1000 nM | 1.1 | –
[1], 3000 nM | 2.12 | –
[2], 4.1 nM | 0.619 | –
[2], 12.3 nM | 0.863 | –
[2], 37 nM | 0.65 | –
[2], 111.1 nM | 0.493 | –
[2], 333.3 nM | 0.784 | –
[2], 1000 nM | 0.766 | –
[2], 3000 nM | 1.23 | –
[3], 4.1 nM | 0.444 | –
[3], 12.3 nM | 0.593 | –
[3], 37 nM | 0.461 | –
[3], 111.1 nM | 0.559 | –
[3], 333.3 nM | 0.587 | –
[3], 1000 nM | 0.791 | –
[3], 3000 nM | 2.66 | –
[4], 4.1 nM | 0.349 | –
[4], 12.3 nM | 0.269 | –
[4], 37 nM | 0.652 | –
[4], 111.1 nM | 1.25 | –
[4], 333.3 nM | 0.929 | –
[4], 1000 nM | 1.89 | –
[4], 3000 nM | 3.89 | –
[5], 4.1 nM | 0.501 | –
[5], 12.3 nM | 0.465 | –
[5], 37 nM | 0.883 | –
[5], 111.1 nM | 0.636 | –
[5], 333.3 nM | 0.903 | –
[5], 1000 nM | 0.701 | –
[5], 3000 nM | 1.2 | –
[6], 4.1 nM | 0.925 | –
[6], 12.3 nM | 0.493 | –
[6], 37 nM | 1.32 | –
[6], 111.1 nM | 0.834 | –
[6], 333.3 nM | 1.3 | –
[6], 1000 nM | 1.07 | –
[6], 3000 nM | 1.51 | –
[7], 4.1 nM | 0.64 | –
[7], 12.3 nM | 0.477 | –
[7], 37 nM | 0.693 | –
[7], 111.1 nM | 0.637 | –
[7], 333.3 nM | 0.796 | –
[7], 1000 nM | 1.19 | –
[7], 3000 nM | 2.32 | –
[8], 4.1 nM | – | 0.787
[8], 12.3 nM | – | 1.01
[8], 37 nM | – | 0.925
[8], 111.1 nM | – | 0.818
[8], 333.3 nM | – | 0.709
[8], 1000 nM | – | 0.814
[8], 3000 nM | – | 0.539
[9], 4.1 nM | – | 1.09
[9], 12.3 nM | – | 1.19
[9], 37 nM | – | 1.06
[9], 111.1 nM | – | 1.13
[9], 333.3 nM | – | 1.07
[9], 1000 nM | – | 0.886
[9], 3000 nM | – | 0.537
[10], 4.1 nM | – | 1.17
[10], 12.3 nM | – | 1.07
[10], 37 nM | – | 0.966
[10], 111.1 nM | – | 0.907
[10], 333.3 nM | – | 0.954
[10], 1000 nM | – | 0.875
[10], 3000 nM | – | 0.492
[11], 4.1 nM | – | 1.04
[11], 12.3 nM | – | 1.09
[11], 37 nM | – | 1.1
[11], 111.1 nM | – | 1.06
[11], 333.3 nM | – | 1.07
[11], 1000 nM | – | 0.918
[11], 3000 nM | – | 0.595
[12], 4.1 nM | – | 0.9
[12], 12.3 nM | – | 0.972
[12], 37 nM | – | 1
[12], 111.1 nM | – | 0.977
[12], 333.3 nM | – | 1.01
[12], 1000 nM | – | 0.981
[12], 3000 nM | – | 0.82
[13], 4.1 nM | – | 1
[13], 12.3 nM | – | 1.04
[13], 37 nM | – | 1.37
[13], 111.1 nM | – | 0.936
[13], 333.3 nM | – | 1.13
[13], 1000 nM | – | 1.06
[13], 3000 nM | – | 0.976
[14], 4.1 nM | – | 0.897
[14], 12.3 nM | – | 1.05
[14], 37 nM | – | 0.979
[14], 111.1 nM | – | 1.01
[14], 333.3 nM | – | 1.02
[14], 1000 nM | – | 0.955
[14], 3000 nM | – | 0.823

COc1cc2c(cc1-c1c(C)noc1C)ncc1[nH]c(=O)n([C@H](C)c3ccccn3)c12
Conditions | phenotypic distance | surviving fraction
[1], 4.1 nM | 0.723 | –
[1], 12.3 nM | 0.923 | –
[1], 37 nM | 3.5 | –
[1], 111.1 nM | 1.73 | –
[1], 333.3 nM | 2.84 | –
[1], 1000 nM | 3.74 | –
[1], 3000 nM | 3.72 | –
[2], 4.1 nM | 0.949 | –
[2], 12.3 nM | 0.901 | –
[2], 37 nM | 0.621 | –
[2], 111.1 nM | 1.03 | –
[2], 333.3 nM | 1.35 | –
[2], 1000 nM | 1.72 | –
[2], 3000 nM | 1.77 | –
[3], 4.1 nM | 1.21 | –
[3], 12.3 nM | 1.17 | –
[3], 37 nM | 1.25 | –
[3], 111.1 nM | 1.2 | –
[3], 333.3 nM | 1.04 | –
[3], 1000 nM | 1.53 | –
[3], 3000 nM | 3.06 | –
[4], 4.1 nM | 4.06 | –
[4], 12.3 nM | 7.45 | –
[4], 37 nM | 0.734 | –
[4], 111.1 nM | 1.05 | –
[4], 333.3 nM | 1.91 | –
[4], 1000 nM | 3.16 | –
[4], 3000 nM | 3.48 | –
[5], 4.1 nM | 1.02 | –
[5], 12.3 nM | 0.609 | –
[5], 37 nM | 0.687 | –
[5], 111.1 nM | 1.15 | –
[5], 333.3 nM | 1.46 | –
[5], 1000 nM | 1.79 | –
[5], 3000 nM | 2.96 | –
[6], 4.1 nM | 0.332 | –
[6], 12.3 nM | 0.436 | –
[6], 37 nM | 0.51 | –
[6], 111.1 nM | 0.757 | –
[6], 333.3 nM | 0.725 | –
[6], 1000 nM | 1.98 | –
[6], 3000 nM | 2.07 | –
[7], 4.1 nM | 0.956 | –
[7], 12.3 nM | 0.64 | –
[7], 37 nM | 0.943 | –
[7], 111.1 nM | 1.42 | –
[7], 333.3 nM | 2.79 | –
[7], 1000 nM | 4.44 | –
[7], 3000 nM | 6.05 | –
[8], 4.1 nM | – | 0.96
[8], 12.3 nM | – | 0.821
[8], 37 nM | – | 0.885
[8], 111.1 nM | – | 0.757
[8], 333.3 nM | – | 0.79
[8], 1000 nM | – | 0.562
[8], 3000 nM | – | 0.473
[9], 4.1 nM | – | 1.05
[9], 12.3 nM | – | 0.934
[9], 37 nM | – | 1.14
[9], 111.1 nM | – | 0.933
[9], 333.3 nM | – | 0.976
[9], 1000 nM | – | 0.652
[9], 3000 nM | – | 0.782
[10], 4.1 nM | – | 0.954
[10], 12.3 nM | – | 0.984
[10], 37 nM | – | 0.981
[10], 111.1 nM | – | 0.987
[10], 333.3 nM | – | 0.837
[10], 1000 nM | – | 0.73
[10], 3000 nM | – | 0.654
[11], 4.1 nM | – | 1.04
[11], 12.3 nM | – | 0.964
[11], 37 nM | – | 1.14
[11], 111.1 nM | – | 1.08
[11], 333.3 nM | – | 0.915
[11], 1000 nM | – | 0.653
[11], 3000 nM | – | 0.533
[12], 4.1 nM | – | 0.897
[12], 12.3 nM | – | 1.11
[12], 37 nM | – | 0.994
[12], 111.1 nM | – | 0.972
[12], 333.3 nM | – | 1.03
[12], 1000 nM | – | 0.882
[12], 3000 nM | – | 0.683
[13], 4.1 nM | – | 1.12
[13], 12.3 nM | – | 0.852
[13], 37 nM | – | 1.18
[13], 111.1 nM | – | 0.997
[13], 333.3 nM | – | 1.22
[13], 1000 nM | – | 0.817
[13], 3000 nM | – | 0.628
[14], 4.1 nM | – | 0.942
[14], 12.3 nM | – | 1.05
[14], 37 nM | – | 0.96
[14], 111.1 nM | – | 0.873
[14], 333.3 nM | – | 0.78
[14], 1000 nM | – | 0.567
[14], 3000 nM | – | 0.391

From the supplement of paper PMC13207355
